In EP2519243B1, “COMPOSITIONS AND METHODS FOR TREATING HEPATITIS B VIRUS INFECTION” (priority 2009, dated 2011):
Like-named read-outs stand apart in the source and are kept apart here.

Legend:
[1] = tested on: HBV; assay: Viral dynamic analyses of serum HBV DNA under lamivudine therapy (model fit and simulation); design: species or system human; details: estimate (standard error)
Text: The HBV DNA data used in the unique assessments disclosed herein of HBV viral dynamics under lamivudine therapy were obtained from the previously published lamivudine dose-response curves (FIG. 1). […] Therefore, for the viral dynamic analyses, only data up to day 15 were used.
The digitalized data were converted to percent change from baseline as (Vt-V0)/V0 and further presented as Vt/V0, where V0 and Vt are the HBV DNA data at baseline and at time t after treatment initiation, respectively. The viral dynamic model as illustrated below was fitted to the Vt/V0 vs. time data: Vt /V0 = [(ε*u-a)/(u-a)]*exp(-u*t) + [(1-ε)*u/(u-a)]*exp(-a*t) [formula] where u is the clearance rate constant of free virions; a is the clearance rate constant of infected cells; ε is the inhibition efficacy.
Table 3. Exemplary viral dynamic parameter estimates (standard error) of lamivudine
These analyses are illustrated in FIG. 2.
Table 4. Examples of model predicted HBV DNA reduction from baseline on long10 scale (% change)

[2] = tested on: HBV; details: day 29, 100 mg/day dose; no additional benefits with 300 mg or 600 mg; cited from earlier work
[3] = tested on: HBV; assay: Emax modeling of predicted day 29 HBV DNA reduction versus lamivudine dose; design: species or system human; details: Emax model estimate (standard error); Emax fixed to 4; day 29 predicted data
Text: The predicted HBV DNA reduction data on day 29 were used for Emax modeling analyses for the purpose of defining optimal doses of lamivudine.
An Emax model in the form of E = Emax *ED50^h /(D^h+ED50^h) [formula] where E and Emax are the viral response with dose D and maximum viral response respectively; ED50 is the dose resulting in 50% of viral response; h is the Hill parameter. The maximum reduction of HBV NDA at 4 weeks achievable by a nucleoside/nucleotide antiviral is approximately 4 log10. (Buti et al. J. Hepatol. 39: S139-S142, 2003.) Therefore, in the Emax modeling herein, Emax was fixed to 4.
Using these estimates, viral responses at untested doses were predicted and results are illustrated in FIG. 3 and presented in Table 5.

[4] = cited from earlier work
[5] = tested on: HBV; details: cited from earlier work; for cumulative rate of resistance: in 5 years

SMILES | e (inhibition efficacy) ([1]; lamivudine 5 mg/day) | e (inhibition efficacy) ([1]; lamivudine 20 mg/day) | e (inhibition efficacy) ([1]; lamivudine 100 mg/day) | e (inhibition efficacy) ([1]; lamivudine 300 mg/day) | e (inhibition efficacy) ([1]; lamivudine 600 mg/day) | maximal observed viral suppression (median, from baseline) [2] [%] | ED50 (dose resulting in 50% of viral response) [3] | cumulative rate of nephrotoxicity ([4]; 10 mg per day, 4-5 years, patients with compensated liver disease) [%] | adefovir-associated nephrotoxicity (patients) ([4]; decompensated liver disease and liver transplantation, treatment periods of 39-99 weeks) | cumulative rate of resistance ([5]; HBeAg negative patients) [%] | cumulative rate of resistance ([5]; HBeAg positive patients) | 5-year resistance rate ([5]; monotherapy)
Nc1ccn([C@@H]2CS[C@H](CO)O2)c(=O)n1 (relative stereo) [lamivudine, (2R,cis)-4-amino-1-(2-hydroxymethyl-1,3-oxathiolan-5-yl)-(1H)-pyrimidin-2-one] | 0.6193 (0.0369) | 0.8186 (0.0374) | 0.8173 (0.0254) | 0.8463 (0.0087) | 0.8673 (0.0248) | ≥ 98 | 101.5 (29.04) mg | – | – | – | – | –
CC(C)(C)C(=O)OCOP(=O)(COCCn1cnc2c(N)ncnc21)OCOC(=O)C(C)(C)C [adefovir dipivoxil, 9-[2-[[bis[(pivaloyloxy)methoxy]-phosphinyl]-methoxy]ethyl]adenine] | – | – | – | – | – | – | – | 3 | up to 47% | 29 | about 20% | 20-30%
